Measured values published in patent publication US6420559B1, “1-(4-arylpiperazin-1-yl)-ω-[N-(α,ω-dicarboximido)]-alkanes useful as uro-selective α1-adrenoceptor blockers” (Ranbaxy Laboratories Limited, priority 1997, dated 2002).
Counter-ions that a name gives are not always drawn.

Tests used:
[1] = test system: anaesthetized normotensive rats; experiment: In vivo blood pressure, anaesthetized normotensive rats, intravenous route; set-up: species or system rat; details: 0.3 mg/kg intravenous, 3 hours observation
Protocol: (§1) Antihypertensive effect of selected compounds according to the invention were studied for their ability to lower blood pressure in anaesthetized and conscious normotensive and spontaneously hypertensive rats via intravenous, oral and intraduodenal routes.
Male wistar rats were anaesthetized with urethane (2.5 g/kg). Femoral vein and carotid artery were cannulated. Blood pressure and heart rate were recorded using Statham pressure transducer. Data was recorded on Grass polygraph as well as using online data acquisition system (Buxco AT). Intravenously administered compounds of the invention were initially tested at 0.3 mg/kg over a period of 3 hours for their effect on blood pressure and the results are shown in Table 1. For a select few of the compounds, the blood pressure lowering effect upon intravenous administration was also studied at dosages of 0.03, 0.1, 0.3, and 1 mg/kg.

[2] = test system: anaesthetized normotensive rats; experiment: Mean arterial pressure in anaesthetized normotensive rats, intraduodenal route; format: in vivo, rat
Protocol: as §1
Male wistar rats were fasted for 18 hours. Rats were anaesthetized with urethane. Femoral vein and carotid artery were cannulated. A catheter was placed in the duodenum following lapratomy. The compounds of the present invention (at dosages of 0.3, 1, 3 and 10 mg/kg) were administered in the duodenum and blood pressure was monitored for 3 hours.

[3] = test system: anaesthetized dogs; experiment: In vivo selectivity study, phenylephrine-induced blood pressure and intraurethral pressure in anaesthetized dogs; set-up: species or system dog; details: iv, against phenylephrine dose response
Protocol: Male mongrel dogs (12-20 Kg) were anaesthetized with pentobarbitone sodium (35 mg/kg, iv). Trachea was intubated for artificial respiration. Femoral artery and femoral vein were cannulated for recording blood pressure and for administration of drug solutions, respectively. Blood pressure was recorded on a polygraph through a pressure transducer. A paramedian incision was made lateral to the penis and the bladder was exposed. Urine was drained through a cannula put directly into the bladder and it was guided into the urethra gently and was placed at the prostatic urethra. Balloon was inflated with 2 cc air and its placement was confirmed by digital pressure. Intraurethral pressure was recorded on the polygraph through a pressure transducer. Graded dose response relationship of phenylephrine (1-16 μg/kg, iv) was obtained on prostatic pressure and blood pressure, prior to administration of the compounds of the present invention. Compounds 2, 9, and 13 (at dosages of 0.01, 0.03, 0.1, and 0.3 mg/kg) were administered intravenously 10 min before obtaining phenylephrine dose response curves. Results were analyzed and pseudo pKB values were calculated as described in Kenny et al (1996).

[4] = test system: conscious spontaneously hypertensive rats; experiment: Systolic blood pressure in conscious spontaneously hypertensive rats, oral; format: in vivo, rat
Protocol: Spontaneously hypertensive rats weighing between 250-300 g were used in this study. Rats were fasted overnight. Blood pressure was monitored from tail artery using semi-automatic noninvasive blood pressure monitoring apparatus. Compounds of the present invention (at dosages of 1, 3, 10, and 30 mg/kg) were administered orally. Blood pressure was monitored prior to and 1.5, 4, 6 and 24 hours after drug administration.

[5] = test system: conscious freely moving normotensive rats; experiment: Mean arterial blood pressure in conscious freely moving normotensive rats, oral; format: in vivo, rat
Protocol: Femoral artery of normotensive male wistar rats, maintained on an overnight light diet, were catheterized under pentobarbitone anaesthesia (35 mg/kg). Femoral artery catheter was exteriorized through the neck region for blood pressure recording. […] Blood pressure and heart rate were recorded with the help of Statham pressure transducer on a Grass polygraph and the results are shown in Table 4.

[6] = target: Muscarinic cholinergic receptor (Rattus norvegicus, UniProt P08483); experiment: In vitro receptor selectivity, rat trachea; format: cell-based
Sequence of Muscarinic cholinergic receptor (P08483 whole entry): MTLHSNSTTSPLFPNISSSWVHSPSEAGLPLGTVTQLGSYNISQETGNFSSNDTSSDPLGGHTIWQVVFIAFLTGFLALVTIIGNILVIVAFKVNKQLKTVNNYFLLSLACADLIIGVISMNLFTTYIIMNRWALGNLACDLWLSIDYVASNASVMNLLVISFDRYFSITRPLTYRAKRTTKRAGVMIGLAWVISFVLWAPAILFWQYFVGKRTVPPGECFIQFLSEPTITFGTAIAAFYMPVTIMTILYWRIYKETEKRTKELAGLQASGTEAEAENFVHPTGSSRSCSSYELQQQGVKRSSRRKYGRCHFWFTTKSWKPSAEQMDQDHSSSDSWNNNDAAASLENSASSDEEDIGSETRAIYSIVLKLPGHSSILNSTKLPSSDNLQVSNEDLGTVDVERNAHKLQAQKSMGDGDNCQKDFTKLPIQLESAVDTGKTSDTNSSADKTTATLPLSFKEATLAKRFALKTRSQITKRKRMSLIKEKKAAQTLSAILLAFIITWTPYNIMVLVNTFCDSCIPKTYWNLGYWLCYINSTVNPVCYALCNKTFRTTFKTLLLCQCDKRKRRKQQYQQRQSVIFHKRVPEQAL
Protocol: (§2) Selectivity of action of the present compounds was tested against a range of different receptors, e.g., β1- and α2-adrenergic, muscarinic cholinergic, serotoninergic (5-HT2A), histaminergic (H1), angiotensin II, endothelin (ETA and B,), as well as calcium and potassium channels. Rat aorta was used to study the effect of the compounds on 5-HT2A, ETA, calcium and potassium channels. Angiotensin II receptor antagonistic activity was studied in rabbit aorta. Muscarinic cholinergic receptor and ETB receptor antagonistic activity was studied in rat trachea, while guinea pig trachea was used to study H1 receptor antagonistic activity. Electrically stimulated rat vas deferens was used to investigate the effect of α2-adrenoceptors, while β1-adrenoceptor antagonistic activity was studied using electrically stimulated rat ventricular strips. Results of this selectivity study is shown in (Table 2).

[7] = target: α1-adrenergic; details: cited from earlier work
[8] = test system: Potassium Channel; experiment: In vitro receptor selectivity, rat aorta; format: cell-based; details: NE: No effect
Protocol: as §2

SMILES: O=C1CCCC(=O)N1CCCN1CCN(c2ccc(F)cc2)CC1 [Compound 14, 1-[4-(4-Fluorophenyl)piperazin-1-yl]-3-(2,6-dioxopiperidin-1-yl)propane]
- melting point: 200 to 202 °C
- Duration [1]: 60.0 min
- In Vivo BP Fall in mmHg [1]: 20.0 mmHg

SMILES: O=C1CCCC(=O)N1CCCN1CCN(c2ccc(Cl)cc2)CC1 (as salt: hydrochloride) [Compound 15, 1-[4-(4-Chlorophenyl)piperazin-1-yl]-3-(2,6-dioxopiperidin-1-yl)propane]
- melting point: 206 to 208 °C

SMILES: COc1ccccc1N1CCN(CCCCN2C(=O)CCC2=O)CC1 [Compound 9, 1-[4-(2-Methoxyphenyl)piperazin-1-yl]-4-(2,5-dioxopyrrolidin-1-yl)butane]
- Duration [1]: >180 min
- In Vivo BP Fall in mmHg [1]: 46 mmHg
- Duration of Action ([2]; 1 mg/kg intraduodenal): >3.0 h
- Mean Arterial Pressure (% Change from basal) ([2]; 1 mg/kg intraduodenal): −19%
- Duration of Action ([2]; 3 mg/kg intraduodenal): >3.0 h
- Mean Arterial Pressure (% Change from basal) ([2]; 3 mg/kg intraduodenal): −53%
- Duration of Action ([2]; 10 mg/kg intraduodenal): >3.0 h
- Mean Arterial Pressure (% Change from basal) ([2]; 10 mg/kg intraduodenal): −57%
- pseudo pKB Blood Pressure [3]: 7.4
- pseudo pKB Intraurethral Pressure [3]: 7.9
- Systolic Pressure (% Change from basal) (at 6 hours) ([4]; 1 mg/kg oral): −0.4%
- Systolic Pressure (% Change from basal) (at 6 hours) ([4]; 3 mg/kg oral): −7.0%
- Systolic Pressure (% Change from basal) (at 6 hours) ([4]; 10 mg/kg oral): −24.0%
- Systolic Pressure (% Change from basal) (at 6 hours) ([4]; 30 mg/kg oral): −25.0%
- Mean Arterial Pressure (% Change from basal) ([5]; 1 mg/kg oral): −4%
- Mean Arterial Pressure (% Change from basal) ([5]; 10 mg/kg oral): −11%
- pKB Muscarinic [6]: 5.0

SMILES: COc1cc2nc(N3CCN(C(=O)c4ccco4)CC3)nc(N)c2cc1OC [prazosin]
- α1-adrenergic blocking activity (pKi) [7]: > 8

SMILES: COc1ccccc1N1CCN(CCCN2C(=O)CCC2=O)CC1 (as salt: hydrochloride) [Compound 2, 1-[4-(2-Methoxyphenyl)piperazin-1-yl]-3-(2,5-dioxopyrrolidin-1-yl)propane]
- melting point: 199 to 202 °C

SMILES: O=C1CCC(=O)N1CCCN1CCN(c2ccc(F)cc2)CC1 (as salt: hydrochloride) [Compound 1, 1-[4-(4-Fluorophenyl)piperazin-1-yl]-3-(2,5-dioxopyrrolidin-1-yl)propane]
- melting point: 246 to 247 °C

SMILES: Cc1ccccc1N1CCN(CCCN2C(=O)CCCC2=O)CC1 [Compound 18, 1-[4-(2-Methylphenyl)piperazin-1-yl]-3-(2,6-dioxopiperidin-1-yl)propane]
- Duration [1]: >150 min
- In Vivo BP Fall in mmHg [1]: 40.0 mmHg

SMILES: COc1ccccc1N1CCN(CCCN2C(=O)CCCC2=O)CC1 [Compound 13, 1-[4-(2-Methoxyphenyl)piperazin-1-yl]-3-(2,6-dioxopiperidin-1-yl)propane]
- Duration [1]: >180 min
- In Vivo BP Fall in mmHg [1]: 50.0 mmHg
- Duration of Action ([2]; 1 mg/kg intraduodenal): <3.0 h
- Mean Arterial Pressure (% Change from basal) ([2]; 1 mg/kg intraduodenal): −32%
- Duration of Action ([2]; 3 mg/kg intraduodenal): >3.0 h
- Mean Arterial Pressure (% Change from basal) ([2]; 3 mg/kg intraduodenal): −40%
- Duration of Action ([2]; 10 mg/kg intraduodenal): >3.0 h
- Mean Arterial Pressure (% Change from basal) ([2]; 10 mg/kg intraduodenal): −42%
- pseudo pKB Blood Pressure [3]: 7.1
- pseudo pKB Intraurethral Pressure [3]: 8.1
- Systolic Pressure (% Change from basal) (at 6 hours) ([4]; 1 mg/kg oral): −7.0%
- Systolic Pressure (% Change from basal) (at 6 hours) ([4]; 3 mg/kg oral): −18.0%
- Systolic Pressure (% Change from basal) (at 6 hours) ([4]; 10 mg/kg oral): −19.0%
- Systolic Pressure (% Change from basal) (at 6 hours) ([4]; 30 mg/kg oral): −14.0%
- pKB Potassium Channel [8]: 5
- Mean Arterial Pressure (% Change from basal) ([5]; 1 mg/kg oral): −5%
- Mean Arterial Pressure (% Change from basal) ([5]; 3 mg/kg oral): −10%
- pKB Muscarinic [6]: 5.5

SMILES: Cc1ccccc1N1CCN(CCCN2C(=O)CCCC2=O)CC1 (as salt: hydrochloride) [Compound 18, 1-[4-(2-Methylphenyl)piperazin-1-yl]-3-(2,6-dioxopiperidin-1-yl)propane]
- melting point: 206 to 207 °C

SMILES: O=C1CCC(=O)N1CCCN1CCN(c2ccc(F)cc2)CC1 [Compound 1, 1-[4-(4-Fluorophenyl)piperazin-1-yl]-3-(2,5-dioxopyrrolidin-1-yl)propane]
- Duration [1]: 15.0 min
- In Vivo BP Fall in mmHg [1]: 5.0 mmHg

SMILES: O=C1CCCC(=O)N1CCCN1CCN(c2ccccc2F)CC1 [Compound 17, 1-[4-(2-Fluorophenyl)piperazin-1-yl]-3-(2,6-dioxopiperidin-1-yl)propane]
- Duration [1]: 120.0 min
- In Vivo BP Fall in mmHg [1]: 50.0 mmHg

SMILES: COc1ccccc1N1CCN(CCCN2C(=O)CCC2=O)CC1 [Compound 2, 1-[4-(2-Methoxyphenyl)piperazin-1-yl]-3-(2,5-dioxopyrrolidin-1-yl)propane]
- Duration [1]: 120.0 min
- In Vivo BP Fall in mmHg [1]: 25 mmHg
- Duration of Action ([2]; 1 mg/kg intraduodenal): >2.5 h
- Mean Arterial Pressure (% Change from basal) ([2]; 1 mg/kg intraduodenal): −19%
- Duration of Action ([2]; 3 mg/kg intraduodenal): >2.5 h
- Mean Arterial Pressure (% Change from basal) ([2]; 3 mg/kg intraduodenal): −43%
- Duration of Action ([2]; 10 mg/kg intraduodenal): >2.5 h
- Mean Arterial Pressure (% Change from basal) ([2]; 10 mg/kg intraduodenal): −42%
- pseudo pKB Blood Pressure [3]: 6.9
- pseudo pKB Intraurethral Pressure [3]: 7.60
- Systolic Pressure (% Change from basal) (at 6 hours) ([4]; 1 mg/kg oral): −7.0%
- Systolic Pressure (% Change from basal) (at 6 hours) ([4]; 3 mg/kg oral): −12.0%
- Systolic Pressure (% Change from basal) (at 6 hours) ([4]; 10 mg/kg oral): −13.0%
- Systolic Pressure (% Change from basal) (at 6 hours) ([4]; 30 mg/kg oral): −17.0%
- Mean Arterial Pressure (% Change from basal) ([5]; 3 mg/kg oral): −14%
- Mean Arterial Pressure (% Change from basal) ([5]; 10 mg/kg oral): −10%
- pKB Muscarinic [6]: 5.0
